The results in this text go back to patent US9528092B2, “Methods of efficiently establishing induced pluripotent stem cells under hypoxic conditions” (Kyoto University, priority 2008, dated 2016).

The test system of the assay is four-factor transduced MEFs. Description: Flow cytometric analysis of Nanog-GFP-positive cells on day 9 posttransduction. Format: cell-based, mouse. The conditions noted are these: day 5 to day 9 posttransduction, flow cytometry on day 9, four factors alone 0.01%. As to the method: Mice having a Nanog reporter were used as an experimental system. The Nanog reporter used was prepared by inserting the enhanced green fluorescent protein (EGFP) and puromycin resistant genes into the Nanog locus of a BAC (bacterial artificial chromosome) purchased from BACPAC Resources [Okita K. et al., Nature 448, 313-317 (2007)]. The mouse Nanog gene is expressed specifically in pluripotent cells such as ES cells and early embryos. The mouse iPS cells that have become positive for this reporter are known to be nearly equivalent to ES cells in terms of differentiation potential. Mouse embryonic fibroblasts (MEFs) and tail-tip fibroblasts (TTFs) obtained from a Nanog reporter mouse having this Nanog reporter [Okita K. et al., Nature 448, 313-317 (2007)] were transfected by means of retroviruses to establish iPS cells, and colonies expressing EGFP from the Nanog reporter were counted to evaluate the efficiency of establishment of iPS cells.
To investigate whether GFP-positive cells were detected earlier or not, the four-factor transduced MEFs were cultivated under 20% oxygen or under 5% oxygen with or without 2 mM valproic acid (VPA) from day 5 to day 9 posttransduction, and were subjected to flow cytometric analysis on day 9. Retroviral expression of four factors induced 0.01% of the cells to become GFP-positive on day 9 posttransduction. […]
In general terms: Flow cytometry measures light scatter and fluorescence of single cells or particles in a stream.

`CCCC(CCC)C(=O)O` [VPA, valproic acid]: the “percentage of GFP-positive cells” value (2 mM VPA, 20% oxygen) was 0.48%; the “percentage of GFP-positive cells” value (co-treatment with hypoxia (5% oxygen) and 2 mM VPA) was found to be 2.28%.
